Test results as given in PMC7531004, “Discovery of gramicidin A analogues with altered activities by multidimensional screening of a one-bead-one-compound library” (Nature Communications, 2020).
Several values for one entry are separate records, joined by “and”; a condition that tells them apart may be missing. Equal entries are not always repeated. Where two headings read alike, the source gives them in different places. Where a SMILES comes first, the peptide text is derived from it. [ ]: non-standard residue; d: D form. The star is where a group is joined. NHCH2CH2OH = OCCN*; For = O=C*

Key:
[1] = Membrane disruption assay of purified peptides (carboxyfluorescein leakage); type: biochemical; design: key: % lysis; Triton X-100 = 100%, DMSO = 0%; conditions: three replicate lines
[2] = test system: Listeria monocytogenes 10403S
In short: (§1)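 MICs by CLSI broth microdilution in cation-adjusted Mueller Hinton Broth, with 5% laked horse blood added for streptococci, over 64–0.00024 µg/mL peptide.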

[3] = test system: Enterococcus faecalis JCM5803
In short: as §1

[4] = test system: Streptococcus pyogenes SSI-9
In short: as §1

[5] = test system: Streptococcus pneumoniae NBRC 102642
In short: as §1

[6] = test system: Streptococcus agalactiae JCM5671
In short: as §1

[7] = test system: MSSA1 (methicillin-susceptible Staphylococcus aureus); type: cell-based
[8] = H+/Na+ transport assay of purified peptides; conditions: for Supplementary Figure 5 dose-response value (H+/Na+ transport): three replicate lines
Protocol: First, we evaluated the ion channel function of 1 using liposomes. To mimic a negatively charged Gram-positive bacterial membrane, the liposomes were prepared as large unilamellar vesicles (LUVs) comprising a 19:1 mixture of egg yolk phosphatidylcholine (EYPC) and egg yolk phosphatidylglycerol (EYPG)[57]. Pyranine, a pH-dependent fluorescent dye[58], was encapsulated in the LUVs and a pH gradient was applied across the membrane. H^+/Na^+ transport induced by a peptide was monitored by changes in the fluorescence intensity of pyranine.

## CC(C)C[C@@H](NC(=O)[C@H](C)NC(=O)CNC(=O)[C@@H](NC=O)C(C)C)C(=O)N[C@@H](C)C(=O)N[C@@H](C(=O)N[C@H](C(=O)N[C@@H](C(=O)N[C@@H](Cc1c[nH]c2ccccc12)C(=O)N[C@@H](C(=O)N[C@@H](Cc1c[nH]c2ccccc12)C(=O)N[C@@H](C(=O)N[C@@H](Cc1c[nH]c2ccccc12)C(=O)N[C@@H](C(=O)N[C@@H](Cc1c[nH]c2ccccc12)C(=O)NCCO)C(C)C)C(C)C)C(C)C)C(C)C)C(C)C)C(C)C [B03] (For-VGA[dL]A[dV]V[dV]W[dV]W[dV]W[dV]W-NHCH2CH2OH)
Cytotoxicity IC50
  IC50: 38 nM
IC50, mammalian cytotoxicity assay
  IC50: 35.9 nM
Cytotoxicity against P388 cells/IC50
  IC50: 37.6 ± 1.56 nM
[1]; concentration 0.000512 nM
  Supplementary Figure 1 dose-response value: 5.505 and 15.3461 and 13.2964
[1]; concentration 0.00256 nM
  Supplementary Figure 1 dose-response value: 8.036 and 15.949 and 9.456
[1]; concentration 0.0128 nM
  Supplementary Figure 1 dose-response value: 13.2228 and 16.5208 and 14.0976
[1]; concentration 0.064 nM
  Supplementary Figure 1 dose-response value: 9.063 and 6.7749 and 3.531
[1]; concentration 0.32 nM
  Supplementary Figure 1 dose-response value: 12.8598 and 15.0844 and 11.8922
[1]; concentration 1.6 nM
  Supplementary Figure 1 dose-response value: 5.299 and 14.829 and 8.996
[1]; concentration 8 nM
  Supplementary Figure 1 dose-response value: 22.9494 and 19.7369 and 18.966
[1]; concentration 40 nM
  Supplementary Figure 1 dose-response value: 32.4215 and 16.7903 and 25.2195
[1]; concentration 200 nM
  Supplementary Figure 1 dose-response value: 37.1629 and 34.3426 and 29.4644
[1]; concentration 1000 nM
  Supplementary Figure 1 dose-response value: 37.6674 and 31.8257 and 42.0921
[1]; concentration 5000 nM
  Supplementary Figure 1 dose-response value: 72.3831 and 71.3728 and 73.9246
[2]; 10403S
  Antibacterial activity MIC: 4.3 µM
[2]; L. monocytogenes
  antibacterial activity/MIC: 8 µg/mL
[3]; E. faecalis
  antibacterial activity/MIC: 1 µg/mL
[3]; JCM5803
  Antibacterial activity MIC: 0.54 µM
[4]; S. pyogenes
  antibacterial activity/MIC: 0.13 µg/mL
[4]; SSI-9
  Antibacterial activity MIC: 0.068 µM
[5]; NBRC 102642
  Antibacterial activity MIC: 0.0042 µM
[5]; S. pneumoniae
  antibacterial activity/MIC: 0.0078 µg/mL
[6]; JCM5671
  Antibacterial activity MIC: 17 µM
[6]; S. agalactiae
  antibacterial activity/MIC: 32 µg/mL
[7]
  antibacterial activity/MIC: 32 µg/mL
[8]; concentration 0.000512 nM
  Supplementary Figure 5 dose-response value (H+/Na+ transport): 3.426 and 4.542 and 4.454
[8]; concentration 0.00256 nM
  Supplementary Figure 5 dose-response value (H+/Na+ transport): 4.063 and 4.369 and 6.1349
[8]; concentration 0.0128 nM
  Supplementary Figure 5 dose-response value (H+/Na+ transport): 8.086 and 3.88 and 7.199
[8]; concentration 0.064 nM
  Supplementary Figure 5 dose-response value (H+/Na+ transport): 11.12 and 10.2864 and 11.0165
[8]; concentration 0.32 nM
  Supplementary Figure 5 dose-response value (H+/Na+ transport): 19.1274 and 20.4439 and 18.4811
[8]; concentration 1.6 nM
  Supplementary Figure 5 dose-response value (H+/Na+ transport): 44.4719 and 42.2282 and 45.2028
[8]; concentration 8 nM
  Supplementary Figure 5 dose-response value (H+/Na+ transport): 70.1046 and 68.0194 and 61.5034
[8]; concentration 40 nM
  Supplementary Figure 5 dose-response value (H+/Na+ transport): 68.5122 and 68.0449 and 67.6654
[8]; concentration 200 nM
  Supplementary Figure 5 dose-response value (H+/Na+ transport): 74.8622 and 71.9344 and 68.9589
[8]; concentration 1000 nM
  Supplementary Figure 5 dose-response value (H+/Na+ transport): 72.6177 and 71.4474 and 69.5798
[8]; concentration 5000 nM
  Supplementary Figure 5 dose-response value (H+/Na+ transport): 79.6141 and 83.2523 and 73.0858
[8]; read-out: EC50, H+/Na+ transport assay, 1st experiment
  EC50: 1.77 nM
[8]; read-out: EC50, H+/Na+ transport assay, 2nd experiment
  EC50: 1.01 nM
[8]; read-out: EC50, H+/Na+ transport assay, 3rd experiment
  EC50: 1.18 nM
[8]; read-out: H+/Na+ transport activity EC50, EYPC/EYPG (19:1) LUVs
  EC50: 1.3 nM
[8]; read-out: H+/Na+ transport activity/EC50, mean ± SD of three independent experiments
  EC50: 1.32 ± 0.4 nM
